Values of other authors as cited in publication PMC6816764 (Journal of the American Chemical Society, 2018).

How the values were obtained:
[1] = cited from earlier work
[2] = in nitrogen-sparged H2O; cited from earlier work

In the case of [Ru(tpy)(dppn)(py)]^2+, the 1O2 production efficiency ([1]; ref 58a) is given as 98%.
For `[Ru+2].c1ccc(-c2ccccn2)nc1.c1ccc(-c2ccccn2)nc1.c1ccc(-c2ccccn2)nc1` [[Ru(bpy)3]^2+], the Φem of reference [2] is listed as 0.042 and the ΦΔ of standard ([1]; in CH3OH) is listed as 0.81.
